Columns and labels:
[1] = target: Human indoleamine 2,3-dioxygenase1 (hIDO1) (Homo sapiens (Human), UniProt P14902); assay: In-vitro IDO1 enzyme assay (conversion of L-tryptophan to KYN); type: biochemical; settings: read-out: IC50 (IDO1) Enz
Source text: Human indoleamine 2,3-dioxygenasel (hIDO1) catalyzes the oxidative cleavage of the pyrrole ring of the indole nucleus of tryptophan to yield N-formylkynurenine which can be converted to kynurenine (KYN) by deformylation. hIDO1 with an N-terminal His tag, expressed and purified from E. coli cells was procured from either Enzo LifeScienccs, NY, USA). Unless otherwise stated, all materials were procured from Sigma Aldrich, Mo., USA.
The assay monitoring the conversion of L-tryptophan to KYN was carried out as follows. hIDO1 (10 nM) was incubated with tryptophan (30 μM) in the presence of ascorbic acid (20 mM), methylene blue (10 μM) and catalase (100 μg/mL) in potassium phosphate buffer (50 mM; pH 6.5) at 37C for 30 min. The reaction was terminated with 30% trichloroacetic acid (TCA) and further incubated at 65C for 15 min to fully convert N-formylkynurenine to KYN. The reaction mixture was then centrifuged to remove sediments and the KYN in the supernatant was estimated by UV-visible absorption spectroscopy at 360 nm using a Waters HPLC system fitted with a C-18 column or by LC/MS/MS. See, Sono, 1980, J. Biol. Chem., 255:1339-1345, which is herein incorporated by reference.
Percent inhibition at each concentration of test compounds was determined by estimating the decrease in KYN with reference to the reaction control with 1% DMSO vehicle. Data were analyzed using nonlinear regression to generate IC50 values using Graph Pad Prism® 5.

[2] = target: Human TDO (hTDO)-transfected CHO-K1 cells (Homo sapiens (Human), UniProt P48775); assay: CHO-K1 cell based TDO assay; settings: hTDO cellular assay
Description: Human TDO (hTDO)-transfected CHO-K1 cells were used to identify test compounds that inhibit TDO activity and reduce Kynurenine production. CHO-K1 cells (ATCC) were cultured in DMEM supplemented with sodium bicarbonate (2.1 g/L), HEPES (4.1 g/L), L-glutamine (2 mM), non-essential amino acid (84 mg/L) and fetal bovine serum (10%) and maintained at 95% humidity and 5% CO2 in a 37° C. incubator. The TDO gene (TDO2) (Accession number NM_005651.1) was purchased from Origene (USA) and stably expressed in CHO-Kl cells using the expression vector pcDNA4/Myc-HisB Hygro (Life Technologies, USA). TDO-expressing clones were identified based on the kynurenine production by the cells. Expanded clones were used for assay as described below. Unless otherwise stated, all materials were procured from Sigma.
hTDO transfected CHO-K1 cells (0.05 million/well) were seeded in a 96-well plate and maintained overnight in DMEM containing 10% FBS (200 μL) at 95% humidity and 5% CO2 in a 37° C. incubator. The following day, cells were washed and incubated with test compounds (typically 31 μM to 10 nM, final volume 150 μL) in Hanks Balanced Salt Solution (HBSS) containing 80 μM L-tryptophan for 2 hours. Supernatant (150 μL) from the cells was treated with 30% TCA ([…]) to precipitate proteins. Supernatants were further incubated at 65° C. for 15 min to convert N-formylkynurenine to kynurenine. KYN in the supernatant was measured by LC/MS/MS using an API4000 mass spectrometer (Applied Biosystems) coupled to a Shimadzu Prominence LC system fitted with a C18 column.
Percent inhibition of the test compounds was determined by measuring the decrease in KYN as compared to the reaction control (DMSO vehicle). IC50 values were calculated using Graph Pad Prism® 5 as described above.

Sequence of Human TDO (hTDO)-transfected CHO-K1 cells (P48775 whole entry): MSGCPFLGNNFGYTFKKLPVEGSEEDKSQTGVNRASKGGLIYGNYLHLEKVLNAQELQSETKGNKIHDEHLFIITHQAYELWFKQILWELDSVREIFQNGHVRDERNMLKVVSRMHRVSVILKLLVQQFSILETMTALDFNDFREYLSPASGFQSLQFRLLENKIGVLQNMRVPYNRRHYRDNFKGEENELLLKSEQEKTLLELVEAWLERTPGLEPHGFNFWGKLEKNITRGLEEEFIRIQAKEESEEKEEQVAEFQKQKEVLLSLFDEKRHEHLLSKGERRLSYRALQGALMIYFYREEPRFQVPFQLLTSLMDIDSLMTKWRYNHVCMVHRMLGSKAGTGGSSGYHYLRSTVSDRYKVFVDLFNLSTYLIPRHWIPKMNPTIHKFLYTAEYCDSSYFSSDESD
Sequence of Human indoleamine 2,3-dioxygenase1 (hIDO1) (P14902 whole entry): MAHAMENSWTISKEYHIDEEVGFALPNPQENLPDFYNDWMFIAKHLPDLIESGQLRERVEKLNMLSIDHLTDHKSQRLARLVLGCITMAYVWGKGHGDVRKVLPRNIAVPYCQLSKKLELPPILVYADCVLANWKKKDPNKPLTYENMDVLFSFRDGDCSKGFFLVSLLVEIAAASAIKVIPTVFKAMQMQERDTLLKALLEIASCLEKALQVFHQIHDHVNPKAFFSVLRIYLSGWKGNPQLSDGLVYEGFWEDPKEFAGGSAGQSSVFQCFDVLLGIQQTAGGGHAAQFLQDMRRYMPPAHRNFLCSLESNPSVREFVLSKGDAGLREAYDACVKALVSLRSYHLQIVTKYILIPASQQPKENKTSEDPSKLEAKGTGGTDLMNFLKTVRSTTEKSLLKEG

Row | Structure (SMILES) | IC50 [1] | IC50 [2]
1 | Nc1oc2cccnc2c1Nc1ccc(F)c(Cl)c1 [Compound 1, N^3-(3-chloro-4-fluoro-phenyl)-furo[3,2-b]pyridine-2,3-diamine] | < 0.2 µM | 
2 | Nc1oc2cnccc2c1Nc1ccc(C(F)(F)F)cc1 [Compound 6, N^3-(4-(Trifluoromethyl)phenyl)furo[2,3-c]pyridine-2,3-diamine] | > 1 µM | 0.5 to 2 µM
3 | Nc1oc2cnccc2c1Nc1ccc(Cl)cc1Cl [Compound 7, N^3-(2,4-Dichlorophenyl)furo[2,3-c]pyridine-2,3-diamine] | > 1 µM | > 2 µM
4 | Nc1oc2cnccc2c1Nc1ccc(N2CCOCC2)cc1 [Compound 11, N^3-(4-Morpholinophenyl)furo[2,3-c]pyridine-2,3-diamine] | > 1 µM | > 2 µM
5 | Nc1oc2cnccc2c1Nc1cc(F)c(F)cc1F [Compound 12, N^3-(2,4,5-Trifluorophenyl)furo[2,3-c]pyridine-2,3-diamine] | > 1 µM | > 2 µM
6 | Nc1oc2cnccc2c1Nc1ccc(Cl)cc1 [Compound 17, N^3-(4-Chlorophenyl)furo[2,3-c]pyridine-2,3-diamine] | > 1 µM | 0.5 to 2 µM
7 | Nc1oc2cnccc2c1Nc1ccc(I)c(Cl)c1 [Compound 18, N^3-(3-Chloro-4-iodophenyl)furo[2,3-c]pyridine-2,3-diamine] | > 1 µM | 0.5 to 2 µM
8 | Nc1oc2cnccc2c1Nc1ccc(Cc2ccccc2)cc1 [Compound 23, N^3-(4-Benzylphenyl)furo[2,3-c]pyridine-2,3-diamine] | > 1 µM | 0.5 to 2 µM
9 | Nc1oc2cnccc2c1Nc1ccccc1N1CCCCC1 [Compound 24, N^3-(2-(Piperidin-1-yl)phenyl)furo[2,3-c]pyridine-2,3-diamine] | > 1 µM | > 2 µM
10 | N#Cc1cccc(Nc2c(N)oc3cnccc23)c1F [Compound 28, 3-((2-Aminofuro[2,3-c]pyridin-3-yl)amino)-2-fluorobenzonitrile] | > 1 µM | > 2 µM
11 | Nc1oc2cnccc2c1Nc1ccc(Oc2ccccc2)cc1 [Compound 29, N^3-(4-Phenoxyphenyl)furo[2,3-c]pyridine-2,3-diamine] | > 1 µM | > 2 µM
12 | Nc1oc2cnccc2c1Nc1ccc(F)cc1Cl [Compound 30, N^3-(2-Chloro-4-fluorophenyl)furo[2,3-c]pyridine-2,3-diamine] | > 1 µM | 0.5 to 2 µM
13 | Nc1oc2cnccc2c1Nc1ccc(Cl)c(Cl)c1Cl [Compound 31, N^3-(2,3,4-Trichlorophenyl)furo[2,3-c]pyridine-2,3-diamine] | > 1 µM | > 2 µM
14 | CC(C)(C)c1cc(Nc2c(N)oc3cnccc23)cc(C(C)(C)C)c1 [Compound 32, N^3-(3,5-Di-tert-butylphenyl)furo[2,3-c]pyridine-2,3-diamine] | > 1 µM | 0.5 to 2 µM
15 | COc1ccc(Nc2c(N)oc3cnccc23)c(OC)c1 [Compound 34, N^3-(2,4-Dimethoxyphenyl)furo[2,3-c]pyridine-2,3-diamine] | > 1 µM | > 2 µM
16 | C#Cc1ccc(Nc2c(N)oc3cnccc23)cc1 [Compound 36, N^3-(4-Ethynylphenyl)furo[2,3-c]pyridine-2,3-diamine] | > 1 µM | 0.5 to 2 µM
17 | CC(C)Oc1cccc(Nc2c(N)oc3cnccc23)c1 [Compound 37, N^3-(3-Isopropoxyphenyl)furo[2,3-c]pyridine-2,3-diamine] | > 1 µM | > 2 µM
18 | COc1cc(Nc2c(N)oc3cnccc23)cc(OC)c1 [Compound 38, N^3-(3,5-Dimethoxyphenyl)furo[2,3-c]pyridine-2,3-diamine] | > 1 µM | 

Row | Structure (SMILES) | IC50 [1] | IC50 [2]
19 | N#Cc1ccc(Nc2c(N)oc3cnccc23)cc1 [Compound 39, 4-((2-Aminofuro[2,3-c]pyridin-3-yl)amino)benzonitrile] | > 1 µM | 0.5 to 2 µM
20 | CC(=O)c1ccc(Nc2c(N)oc3cnccc23)cc1 [Compound 41, 1-(4-((2-Aminofuro[2,3-c]pyridin-3-yl)amino)phenyl)ethanone] | > 1 µM | 0.5 to 2 µM
21 | Nc1oc2cnccc2c1Nc1ccc(F)c(Cl)c1Cl [Compound 45, N^3-(2,3-Dichloro-4-fluorophenyl)furo[2,3-c]pyridine-2,3-diamine] | > 1 µM | > 2 µM
22 | Nc1oc2cnccc2c1Nc1cccnc1 [Compound 49, N^3-(Pyridin-3-yl)furo[2,3-c]pyridine-2,3-diamine] | > 1 µM | 0.5 to 2 µM
23 | Nc1oc2cnccc2c1Nc1ccc(OC(F)(F)F)cc1 [Compound 50, N^3-(4-(Trifluoromethoxy)phenyl)furo[2,3-c]pyridine-2,3-diamine] | > 1 µM | 0.5 to 2 µM
24 | Nc1oc2cnccc2c1Nc1cncc(Cl)c1 [Compound 52, N^3-(5-Chloropyridin-3-yl)furo[2,3-c]pyridine-2,3-diamine] | > 1 µM | 0.5 to 2 µM
25 | Nc1oc2cnccc2c1Nc1cccc(-c2ccccc2)c1 [Compound 53, N^3-([1,1′-Biphenyl]-3-yl)furo[2,3-c]pyridine-2,3-diamine] | > 1 µM | > 2 µM
26 | Cc1ccc(Nc2c(N)oc3cnccc23)c(C)c1 [Compound 54, N^3-(2,4-Dimethylphenyl)furo[2,3-c]pyridine-2,3-diamine] | > 1 µM | 0.5 to 2 µM
27 | Cc1ncc(CO)c2c(Nc3ccc(F)c(Cl)c3)c(N)oc12 [Compound 56, (2-amino-3-((3-chloro-4-fluorophenyl)amino)-7-methylfuro[2,3-c]pyridin-4-yl)methanol] | > 1 µM | > 2 µM
28 | Nc1oc2cncc(Cl)c2c1Nc1ccc(F)c(Cl)c1 [Compound 57, 4-Chloro-N^3-(3-chloro-4-fluoro-phenyl)-furo[2,3-c]pyridine-2,3-diamine] | > 1 µM | 0.5 to 2 µM
29 | CC(C)(C)c1cccc(Nc2c(N)oc3cnccc23)c1 [Compound 61, N^3-(3-(tert-Butyl)phenyl)furo[2,3-c]pyridine-2,3-diamine] | > 1 µM | > 2 µM
30 | Nc1oc2cnccc2c1Nc1cccc2c1CCCC2 [Compound 63, N^3-(5,6,7,8-Tetrahydronaphthalen-1-yl)furo[2,3-c]pyridine-2,3-diamine] | > 1 µM | > 2 µM
31 | Nc1oc2cnccc2c1Nc1cccc(Cc2ccccc2)c1 [Compound 75, N^3-(3-Benzylphenyl)furo[2,3-c]pyridine-2,3-diamine] | > 1 µM | > 2 µM
32 | Nc1sc2ccc(-c3ccccc3)cc2c1Nc1ccc(F)c(Cl)c1 [Compound 134, N^3-(3-chloro-4-fluorophenyl)-5-phenylbenzo[b]thiophene-2,3-diamine] | > 1 µM | 
33 | O=C(Nc1oc2cnccc2c1N(C(=O)OCc1ccccc1)c1ccc(F)c(Cl)c1)OCc1ccccc1 [Compound 140, Benzyl (2-(((benzyloxy)carbonyl)amino)furo[2,3-c]pyridin-3-yl)(3-chloro-4-fluorophenyl)carbamate] | > 1 µM | 
34 | Nc1oc2c(-c3ccc(F)c(F)c3F)nccc2c1Nc1ccc(F)c(Cl)c1 [Compound 171, N^3-(3-Chloro-4-fluorophenyl)-7-(2,3,4-trifluorophenyl)furo[2,3-c]pyridine-2,3-diamine] | < 0.2 µM | 
35 | Nc1sc2c(-c3cncc4ccccc34)cccc2c1Nc1ccc(F)c(Cl)c1 [Compound 281, N^3-(3-Chloro-4-fluorophenyl)-7-(isoquinolin-4-yl)benzo[b]thiophene-2,3-diamine] |  | > 2 µM
